# Tested on: ovalbumin-sensitized mice
# Assay: Prevention of airway hyperreactivity development, anti-inflammatory dosing paradigm (Penh)
# Format: in vivo, mouse
# Conditions: anti-inflammatory dosing paradigm
row,Compound,Efficacy using the anti-inflammatory dosing paradigm
1,"CC(C)(C)NCC(O)c1ccc(O)c(CO)c1 (stereo not shown) [Salbutamol, reference compound]",ineffective

# Tested on: not listed separately
# Assay: Compound plasma concentrations in mice at 15 min post administration
# Format: in vivo, mouse
# Conditions: mouse; mice, plasma, 15 min post administration (oral dosing), mean of n = 3 mice; read-out: Plasma Mean Concentration
# Description: Additionally, compound concentrations were determined in the plasma and lungs of male, ovalbumin-sensitized, Balb/c mice from a murine model of asthma. Test compounds were formulated in water or 1% polysorbate 80 and dosed at 15 μmol/kg for intraperitoneal (IP) or oral (PO) administration or formulated for intratracheal (IT) administration and dosed at 5 μmol/kg, which directly targets the lungs. Following completion of the in vivo study, mice were euthanized and blood and plasma collected approximately 2.5-3 hours post administration of test compound for bronchodialator (BD) studies and 24 hours post administration for anti-inflamatory (AI) studies. Lungs were homogenized in Matrix A lysing tubes using a FastPrep 24 tissue and cell homogenizer (MP Biomedicals, Solon, Ohio). Both plasma samples and lung extracts were assayed for compound concentrations using an on-line, solid phase extraction LC/MS/MS system.
row,Compound,concentration at 15 min [nM]
1,Fc1ccc(CN2CCC[C@H](Nc3ccc4[nH]ncc4c3)C2)cc1F [Compound 1.072],1770
2,Cc1ccc(CN2CCC[C@H](Nc3ccc4[nH]ncc4c3)C2)cc1 [Compound 1.078],1020
3,OCCOc1cccc(CN2CCC[C@H](Nc3ccc4[nH]ncc4c3)C2)c1 [Compound 1.090],5.9
4,OCCOc1cccc(CN2CCC[C@@H](Nc3ccc4[nH]ncc4c3)C2)c1 [Compound 1.092],314
5,NC(=O)Cn1ccc2ccc(CN3CCC[C@@H](Nc4ccc5[nH]ncc5c4)C3)cc21 [Compound 1.106],441
6,NC(=O)Cn1ccc2ccc(CN3CCC[C@H](Nc4ccc5[nH]ncc5c4)C3)cc21 [Compound 1.107],211
7,c1ccc(CN2CCC[C@@H](Nc3ccc4[nH]ncc4c3)C2)cc1 [Compound 1.110],792
8,O=C(COc1cccc(CN2CCC[C@@H](Nc3ccc4[nH]ncc4c3)C2)c1)N1CCOCC1 [Compound 1.127],980
9,Brc1ccc(CN2CCC[C@H](Nc3ccc4[nH]ncc4c3)C2)cc1 [Compound 1.142],330
10,c1cc2cc(CN3CCC[C@@H](Nc4ccc5[nH]ncc5c4)C3)ccc2[nH]1 [Compound 1.143],274
11,Oc1cccc(CN2CCC[C@@H](Nc3ccc4[nH]ncc4c3)C2)c1 [Compound 1.145],109
12,Fc1ccc(CN2CCC[C@@H](Nc3ccc4[nH]ncc4c3)C2)cc1 [Compound 1.146],1260
13,Cc1ccc(CN2CCC[C@H](Nc3ccc4[nH]ncc4c3)C2)cc1O [Compound 1.151],479
14,Cc1ccc(CN2CCC[C@H](Nc3ccc4[nH]ncc4c3)C2)c(C)c1 [Compound 1.155],32.4
15,CSc1cccc(CN2CCC[C@@H](Nc3ccc4[nH]ncc4c3)C2)c1 [Compound 1.159],250
16,CCSc1ccc(CN2CCC[C@H](Nc3ccc4[nH]ncc4c3)C2)cc1 [Compound 1.168],588
17,Clc1cccc(CN2CCC[C@H](Nc3ccc4[nH]ncc4c3)C2)c1 [Compound 1.170],639
18,Cc1cccc(CN2CCC[C@@H](Nc3ccc4[nH]ncc4c3)C2)c1C [Compound 1.172],111
19,c1cc2c(cc1CN1CCC[C@@H](Nc3ccc4[nH]ncc4c3)C1)OCCO2 [Compound 1.177],283
20,CS(=O)(=O)c1cccc(CN2CCC[C@H](Nc3ccc4[nH]ncc4c3)C2)c1 [Compound 1.182],452

# Further lines, results first:
row,concentration at 15 min [nM],Compound
1,708,Brc1cccc(CN2CCC[C@H](Nc3ccc4[nH]ncc4c3)C2)c1 [Compound 1.183]
2,1020,c1cc(C2CC2)ccc1CN1CCC[C@H](Nc2ccc3[nH]ncc3c2)C1 [Compound 1.185]
3,260,Clc1cccc(CN2CCC[C@@H](Nc3ccc4[nH]ncc4c3)C2)c1 [Compound 1.191]
4,355,CC(=O)NCc1cccc(CN2CCC[C@@H](Nc3ccc4[nH]ncc4c3)C2)c1 [Compound 1.194]
5,643,CN(c1cccc(CN2CCC[C@H](Nc3ccc4[nH]ncc4c3)C2)c1)S(C)(=O)=O [Compound 1.198]
6,130,c1cc(CN2CCC[C@@H](Nc3ccc4[nH]ncc4c3)C2)cc(C2CC2)c1 [Compound 1.202]
7,1130,CCOc1cccc(CN2CCC[C@@H](Nc3ccc4[nH]ncc4c3)C2)c1 [Compound 1.203]
8,549,CC(C)c1ccc(CN2CCC[C@@H](Nc3ccc4[nH]ncc4c3)C2)cc1 [Compound 1.204]
9,281,C=Cc1ccc(CN2CCC[C@@H](Nc3ccc4[nH]ncc4c3)C2)cc1 [Compound 1.208]
10,286,Brc1cccc(CN2CCC[C@@H](Nc3ccc4[nH]ncc4c3)C2)c1 [Compound 1.210]
11,12.8,OCc1ccc(CN2CCC[C@H](Nc3ccc4[nH]ncc4c3)C2)cc1 [Compound 1.223]
12,526,COc1ccc(CN2CCC[C@@H](Nc3ccc4[nH]ncc4c3)C2)cc1 [Compound 1.226]
13,1860,c1ccc(CN2CCC[C@H](Nc3ccc4[nH]ncc4c3)C2)cc1 [Compound 1.227]
14,1450,C=Cc1ccc(CN2CCC[C@H](Nc3ccc4[nH]ncc4c3)C2)cc1 [Compound 1.229]
15,240,COc1ccc(CN2CCC[C@H](Nc3ccc4[nH]ncc4c3)C2)cc1NS(C)(=O)=O [Compound 1.234]
16,580,Cc1ccc(CN2CC[C@@H](Nc3ccc4[nH]ncc4c3)C2)cc1 [Compound 1.242]
17,1520,COc1ccc(CN2CC[C@@H](Nc3ccc4[nH]ncc4c3)C2)cc1 [Compound 1.245]
18,587,c1cc2c(cc1CN1CCC[C@@H](Nc3ccc4[nH]ncc4c3)C1)CCO2 [Compound 1.246]
19,503,Clc1ccc(CN2CC[C@@H](Nc3cccc4cnccc34)C2)cc1 [Compound 2.027]
20,665,OCCOc1cccc(CN2CCC[C@@H](Nc3cccc4cnccc34)C2)c1 [Compound 2.034]
21,1340,OCCOc1cccc(CN2CCC[C@H](Nc3cccc4cnccc34)C2)c1 [Compound 2.036]
22,60.8,O=C(COc1cccc(CN2CC[C@@H](Nc3cccc4cnccc34)C2)c1)N1CCOCC1 [Compound 2.043]
23,1260,c1cc(N[C@@H]2CCN(Cc3ccc4c(c3)OCCO4)C2)c2ccncc2c1 [Compound 2.056]
24,660,Fc1ccc(CN2CC[C@@H](Nc3cccc4cnccc34)C2)cc1F [Compound 2.062]
25,348,CC(=O)NCc1cccc(CN2CC[C@@H](Nc3cccc4cnccc34)C2)c1 [Compound 2.063]
